ChEMBL document CHEMBL1201862, “PubChem BioAssay data set” (2004)
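Following 48 hours of exposure in 96-well plates, responses at five concentrations were used to interpolate endpoints linearly. Abbreviation: GI50, concentration required for 50% inhibition of growth.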 Calls of active or inactive are those of the source. Rule as the data show it: active = GI50 up to about 1.1 µM and inactive = higher.

Tests used:
Assay in all cases: growth of human tumour cells (NCI), 48 h
CCRF-CEM = tested on: CCRF-CEM
COLO 205 = tested on: COLO 205
EKVX = tested on: EKVX
HCC 2998 = tested on: HCC 2998
HOP-62 = tested on: HOP-62
HOP-92 = tested on: HOP-92
KM12 = tested on: KM12
LOX IMVI = tested on: LOX IMVI
MCF7 = tested on: MCF7
MOLT-4 = tested on: MOLT-4
NCI-H23 = tested on: NCI-H23
NCI-H460 = tested on: NCI-H460
SF-295 = tested on: SF-295
SF-539 = tested on: SF-539
SN12C = tested on: SN12C
SNB-19 = tested on: SNB-19
SNB-75 = tested on: SNB-75
TK-10 = tested on: TK-10
UACC-257 = tested on: UACC-257
UO-31 = tested on: UO-31

O=C1OC(C2Cc3ccc4c(c3C2=O)CCC4)c2ccccc21 (stereo not given)
GI50 (CCRF-CEM): 46.9 µM (inactive)
GI50 (COLO 205): 20.7 µM (inactive)
GI50 (EKVX): 51.2 µM (inactive)
GI50 (HCC 2998): 37.4 µM (inactive)
GI50 (HOP-62): > 100 µM (inactive)
GI50 (HOP-92): 56.2 µM (inactive)
GI50 (KM12): 29.7 µM (inactive)
GI50 (LOX IMVI): 34.9 µM (inactive)
GI50 (MCF7): 50.1 µM (inactive)
GI50 (MOLT-4): 30.9 µM (inactive)
GI50 (NCI-H23): 55.2 µM (inactive)
GI50 (NCI-H460): 50.9 µM (inactive)
GI50 (SF-295): 59.6 µM (inactive)
GI50 (SF-539): 28.2 µM (inactive)
GI50 (SN12C): 36 µM (inactive)
GI50 (SNB-19): 52.4 µM (inactive)
GI50 (SNB-75): 46 µM (inactive)
GI50 (TK-10): > 100 µM (inactive)
GI50 (UACC-257): 46.8 µM (inactive)
GI50 (UO-31): 45.4 µM (inactive)

CCCCCCCCCCCCCCCCNc1nc(=O)n(C2CC(O)C(CO)O2)cc1F (stereo not given)
GI50 (CCRF-CEM): > 10 µM (inactive)
GI50 (COLO 205): 12.7 µM (inactive)
GI50 (EKVX): 14.6 µM (inactive)
GI50 (HCC 2998): 0.071 µM (active)
GI50 (HOP-62): 7.52 µM (inactive)
GI50 (HOP-92): 10.3 µM (inactive)
GI50 (KM12): 13.8 µM (inactive)
GI50 (LOX IMVI): 10.5 µM (inactive)
GI50 (MCF7): 1.33 µM (inactive)
GI50 (MOLT-4): 4.72 µM (inactive)
GI50 (NCI-H23): 4.85 µM (inactive)
GI50 (NCI-H460): 10.7 µM (inactive)
GI50 (SF-295): 16.5 µM (inactive)
GI50 (SF-539): 0.284 µM (active)
GI50 (SN12C): 12.5 µM (inactive)
GI50 (SNB-19): 13.7 µM (inactive)
GI50 (SNB-75): 5.06 µM (inactive)
GI50 (TK-10): 11.9 µM (inactive)
GI50 (UACC-257): 16.7 µM (inactive)
GI50 (UO-31): 1.4 µM (inactive)

CCOC(=O)C(NS(=O)(=O)c1ccccc1)(C(F)(F)F)P(=O)(OCC(C)C)OCC(C)C (stereo not given)
GI50 (CCRF-CEM): > 100 µM (inactive)
GI50 (COLO 205): > 100 µM (inactive)
GI50 (EKVX): > 100 µM (inactive)
GI50 (HCC 2998): > 100 µM (inactive)
GI50 (HOP-62): > 100 µM (inactive)
GI50 (HOP-92): > 100 µM (inactive)
GI50 (KM12): > 100 µM (inactive)
GI50 (LOX IMVI): > 100 µM (inactive)
GI50 (MCF7): > 100 µM (inactive)
GI50 (MOLT-4): > 100 µM (inactive)
GI50 (NCI-H23): > 100 µM (inactive)
GI50 (NCI-H460): > 100 µM (inactive)
GI50 (SF-295): > 100 µM (inactive)
GI50 (SF-539): > 100 µM (inactive)
GI50 (SN12C): > 100 µM (inactive)
GI50 (SNB-19): > 100 µM (inactive)
GI50 (SNB-75): > 100 µM (inactive)
GI50 (TK-10): > 100 µM (inactive)
GI50 (UACC-257): > 100 µM (inactive)
GI50 (UO-31): 98.2 µM (inactive)

Cn1c(=O)oc2cc(C(O)CN3CCN(Cc4ccc5c(c4)OCO5)CC3)ccc21 (stereo not given)
GI50 (CCRF-CEM): > 100 µM (inactive)
GI50 (COLO 205): > 100 µM (inactive)
GI50 (EKVX): > 100 µM (inactive)
GI50 (HCC 2998): > 100 µM (inactive)
GI50 (HOP-62): > 100 µM (inactive)
GI50 (HOP-92): > 100 µM (inactive)
GI50 (KM12): > 100 µM (inactive)
GI50 (LOX IMVI): > 100 µM (inactive)
GI50 (MCF7): > 100 µM (inactive)
GI50 (MOLT-4): > 100 µM (inactive)
GI50 (NCI-H23): > 100 µM (inactive)
GI50 (NCI-H460): > 100 µM (inactive)
GI50 (SF-295): > 100 µM (inactive)
GI50 (SF-539): > 100 µM (inactive)
GI50 (SN12C): > 100 µM (inactive)
GI50 (SNB-19): > 100 µM (inactive)
GI50 (SNB-75): 47 µM (inactive)
GI50 (TK-10): > 100 µM (inactive)
GI50 (UACC-257): > 100 µM (inactive)
GI50 (UO-31): > 100 µM (inactive)
